Test results reported in patent US20030065039A1, “Biologically active 1,3-bis-aromatic-prop-2-en-1-ones, 1,3-bis-aromatic-propan-1-ones, and 1,3-bis-aromatic-prop-2-yn-1-ones” (Statens Serum Institute, priority 1997, published 2003).
Where two headings read alike, the source gives them in different places. Values belong to the compound of their own block, whether it stands above or below them.

Tests used:
Format in all cases: cell-based
[1] = system: Leishmania promastigotes; test: Leishmania promastigotes Assay; details: Leishmania; promastigotes, 3H-thymidine uptake; read-out: Leishmania IC50 ± SD
In short: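 L. major (WHO Iran vaccine strain) and L. donovani MHOM/KE/85/NLB 274 promastigotes (3×10^6/ml, day 3 and 6 cultures) exposed to compound 2 h at 26 °C, then 3H-thymidine 18 h; incorporation counted by scintillation. Microscopic counts and flagellar motility also assessed.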

[2] = system: TNF-α; test: TNF-α production by human peripheral blood mononuclear cells, culture supernatant (ELISA); details: for inhibition at 1 µg/mL / inhibition at 5 µg/mL / inhibition at 10 µg/mL / inhibition at 20 µg/mL / inhibition at 1.25 µg/mL / inhibition at 6.25 µg/mL / inhibition at 12.5 µg/mL: Homo sapiens, PBMC, read-out: percentage inhibition of TNF-α production; for inhibition at 1 µg/mL: drug 1 μg/ml; for inhibition at 5 µg/mL: drug 5 μg/ml; for inhibition at 10 µg/mL: drug 10 μg/ml; for inhibition at 20 µg/mL: drug 20 μg/ml; for inhibition at 1.25 µg/mL: drug 1.25 μg/ml; for inhibition at 6.25 µg/mL: drug 6.25 μg/ml; for inhibition at 12.5 µg/mL: drug 12.5 μg/ml
Experimental: Cells: Peripheral blood mononuclear cells obtained from healthy individuals. The cells were separated by a conventional method lymphoprep) and suspended in RMPI 1640 containing 5% human serum.
Stimulation of cytokine-release from human mononuclear cells: Human peripheral blood mononuclear cells from Danish donors were suspended in 1-10% (v/v) human serum in RPMI 1640 and adjusted to 2×10^6 cells per ml. 0.1 ml volumes were then dispensed into wells of 96-well microtiter plates. […] In some experiments cells were preincubated with drugs for 2 hrs before addition of stimulation antigens. The cultures were incubated overnight for TNF-α and IL-6 assays.
Supernatants were collected and assayed for TNF-α, IL-1α and IL-6 by ELISA procedures (Jakobsen et al., 1993, Fomsgaard et al., 1988, Hansen et al., 1991) with the following modifications. ELISA Maxisorp plates (Nunc, Roskilde, Denmark) were coated for 24 hrs at 4 C with 100 μl per well of 2.5 μg/ml rabbit polyclonal IgG to human recombinant TNF, IL-1α or IL-6 in 100 mM sodiumhydrogencarbonate. Non-attached sites were blocked for 1 h by 200 μl per well of 2% human serum slbumin in PBS (1 h at 37° C.), and the wells were washed 4 times in 2.5% NaCl, 0.1% Tween 20 (Merck, Darmstadt, Germany). This washing procedure was done after each of the following incubating steps:
1) 100 μl culture supernatants made to 50% (v/v) in incubation buffer (4% (v/v) normal rabbit serum, DAKO code X902), 1% polyethylene glycol (MW 6,000), 2.5% NaCl, 0.1% Tween 20 in phosphate buffered saline (PBS) were incubated 2 hrs at 37° C., dilutions of native as well as recombinant cytokine standards in the same incubation buffer were asssayed in parallel with the tested supernatants,
2) 100 μl per well of biotinilated rabbit antibodies to recombinant TNF-α, IL-1α or IL-6 (1.5 μg/ml in 0.5% human serum albumin, 0.1% Tween 20 in PBS) were added at 37° for 2 hrs,
3) […] per well of a 1:1000 dilution of streptavidin-peroxidase (Amersham, UK), at room temperature for 30 min.
Enzyme activities were quantitated after addition of 100 μl per well of 0.67 mg/ml 1,2-phenyldiamine hydrochloride (DAKO) dissolved in 100 mM citric acid-phosphate buffer, pH 5.0 containing 0.015% (v/v) H2O2. The reactions were stopped by adding 50 μl per well of 2.5 M H2SO4, and the optical densities are measured in an ELISA scanner at 490 nm against a test reference at 620 nm.
Assay: The compounds were prepared as stock solution at a concentration of 1 mg/ml in medium containing 10% DMSO. The dilutions were made in medium. The cells were stimulated with either SPAG (a malaria antigen TNF-inducer) or bacterial LPS. The supernatant of cell cultures were assayed for TNF-α using a commercial ELISA kit.

[3] = system: human lymphocytes; test: Lymphocyte Proliferation Assay; details: Lymphocyte; PHA provoked proliferation of human lymphocytes; read-out: Lymphocytes IC50 ± SD
In short: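 Ficoll-isolated human blood mononuclear cells (0.63×10^5/ml) in RPMI 1640 with 5% FCS were cultured in triplicate with test compound and PHA or PPD for 3 or 7 days. Proliferation measured by ^3H-thymidine incorporation over the final 24 h; triplicate median recorded.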

Structure (SMILES): C=CCOc1ccc(C(=O)/C=C/c2cc(OC)cc(OC)c2)cc1 [SBC-35ma, 3,5-dimethoxy-4′-allyloxychalcone]
IC50 [1]: 27 ± 2 µM | inhibition at 1 µg/mL ([2]; Table 1, LPS 1:1000): 0% | inhibition at 5 µg/mL ([2]; Table 1, LPS 1:1000): 1% | inhibition at 10 µg/mL ([2]; Table 1, LPS 1:1000): 56% | inhibition at 20 µg/mL ([2]; Table 1, LPS 1:1000, preincubated 2 hrs): 73% | inhibition at 1 µg/mL ([2]; Table 1, SPAG 1:12.5): 0% | inhibition at 5 µg/mL ([2]; Table 1, SPAG 1:12.5): 0% | inhibition at 10 µg/mL ([2]; Table 1, SPAG 1:12.5): 55% | inhibition at 20 µg/mL ([2]; Table 1, SPAG 1:12.5, preincubated 2 hrs): 100% | inhibition at 1.25 µg/mL ([2]; Table 2, LPS 1:1000): 2% | inhibition at 6.25 µg/mL ([2]; Table 2, LPS 1:1000): 23% | inhibition at 12.5 µg/mL ([2]; Table 2, LPS 1:1000): 28% | inhibition at 20 µg/mL ([2]; Table 2, LPS 1:1000, preincubated 2 hours): 33% | inhibition at 1.25 µg/mL ([2]; Table 2, SPAG 1:12.5): 87% | inhibition at 6.25 µg/mL ([2]; Table 2, SPAG 1:12.5): 99% | inhibition at 12.5 µg/mL ([2]; Table 2, SPAG 1:12.5): 100% | inhibition at 20 µg/mL ([2]; Table 2, SPAG 1:12.5, preincubated 2 hours): 100% | IC50 [3]: 25 ± 2 µM

IC50 [1]: 3.5 ± 0.8 µM
Structure (SMILES): COc1cc(/C=C/C(=O)c2ccccc2F)cc(OC)c1 [PH135, 2′-fluoro-3,5-dimethoxychalcone]
TNF-α production (OD values) ([2]; Experiment 1, LPS, 12.5 μg/ml, Control 1.17): 0.01 OD | TNF-α production (OD values) ([2]; Experiment 1, LPS, 25 μg/ml, Control 1.17): 0.01 OD | TNF-α production (OD values) ([2]; Experiment 1, LPS, 50 μg/ml, Control 1.17): 0.01 OD | TNF-α production (OD values) ([2]; Experiment 1, LPS, 100 μg/ml, Control 1.17): 0.02 OD | TNF-α production (OD values) ([2]; Experiment 1, SPAG, 12.5 μg/ml, Control 3.73): 0.02 OD | TNF-α production (OD values) ([2]; Experiment 1, SPAG, 25 μg/ml, Control 3.73): 0.01 OD | TNF-α production (OD values) ([2]; Experiment 1, SPAG, 50 μg/ml, Control 3.73): 0.01 OD | TNF-α production (OD values) ([2]; Experiment 1, SPAG, 100 μg/ml, Control 3.73): 0.01 OD | TNF-α production (OD values) ([2]; Experiment 2, LPS, 1.562 μg/ml, Control 2.06): 0.89 OD | TNF-α production (OD values) ([2]; Experiment 2, LPS, 3.125 μg/ml, Control 2.06): 0.49 OD | TNF-α production (OD values) ([2]; Experiment 2, LPS, 6.25 μg/ml, Control 2.06): 0.09 OD | TNF-α production (OD values) ([2]; Experiment 2, LPS, 12.5 μg/ml, Control 2.06): 0.04 OD | TNF-α production (OD values) ([2]; Experiment 2, SPAG, 1.562 μg/ml, Control 2.28): 0.93 OD | TNF-α production (OD values) ([2]; Experiment 2, SPAG, 3.125 μg/ml, Control 2.28): 0.04 OD | TNF-α production (OD values) ([2]; Experiment 2, SPAG, 6.25 μg/ml, Control 2.28): 0.03 OD | TNF-α production (OD values) ([2]; Experiment 2, SPAG, 12.5 μg/ml, Control 2.28): 0.01 OD | IC50 [3]: 6 ± 0.4 µM
